According to patent US20240092779A1, “USP1 INHIBITORS AND USES THEREOF” (Zentaur Therapeutics USA Inc., priority 2022, published 2024):

Tests used:
HCC1806 Ub-PCNA (USP1) = assay: USP1 Western Blot Protocol (HCC1806 Ub-PCNA); format: cell-based; conditions: HCC1806 cells, 4 hours
From the text: USP1 Western Blot Protocol (HCC1806 Ub-PCNA)
USP1 is a deubiquitinase that catalyze the hydrolysis of iso-peptide bond between ubiquitin and the substrate proteins. Inhibition of USP1 activity results in accumulation of mono-ubiquitinated substrate such as Ub-PCNA. A cell assay was set up to determine the cellular potency of USP1 compounds by monitoring the accumulation of Ub-PCNA. The signal intensity was detected by a specific Ub-PCNA antibody through Western-blot analysis.
The assay was initiated by seeding HCC1806 cells (ATCC, CRL-2335) into 6-well plates (Corning, 3516), with a seeding density of 3×10^5 cells per well and 2 mL RPMI 1640 culture medium (Gibco, 11875119). The plates were incubated overnight at 37° C. and 5% CO2. Compounds, solubilized in DMSO (Solarbio, D8371) as 1 mM stock solution, were diluted in 4-fold steps for 5-cencentration point dose response plus a no-compound DMSO control. Diluted compounds (2 μL) were transferred into assay wells (with a final DMSO concentration of −0.1%) and the resulted assay plates incubated at 37° C. and 5% CO2 for 4 hours. After aspiration of culture medium, 100 μL of 4° C. RIPA lysis buffer (Boston BioProducts, BP-115D) supplemented with vendor recommended concentrations of protease (Roche, 4693116001) and phosphatase (Roche, 4906837001) inhibitor, was added to each well and incubated for 10 minutes on the ice. Cells were scrapped loose from the bottom of well with a scraper (Corning, 3008), transferred into a 600 μL EP tube, sonicated using Ultrasound (Qsonica, Q800R3, with 30% energy, 5-second pulse on/off cycles at 4° C., for total 2 minutes), centrifuged 13,000 rpm for 15 minutes at 4° C., and then the supernatant transferred to a new 600 μL EP tube. The total protein concentration was determined using BCA kit following vendor recommended protocol (Solarbio, PC0020-500). Loading samples were prepared by diluting the total protein concentration to 1.5 μg/μL with 5 X NuPAGE SDS loading buffer (Beyotime, P0015L) and RIPA lysis buffer, and boiling at 100° C. for 5 minutes.
15 μg protein from each sample was loaded onto NuPAGE® Novex 4-12% Bis-Tris Midi Gel, 26 W (Invitrogen, WG1403BOX) and electrophoresis was run at 80 V for 30 minutes and 120 V till the end using 1x NuPAGE® MOPS SDS Running Buffer (Novex, NP0001). The gel was then transferred to nitrocellulose membrane using the dry transfer system (iBlot 2 Transfer Stacks, nitrocellulose, D323001) with a program consisting of 20 V for 1 minute, 23 V for 4 minutes and 25 V for 2 minutes. After the membrane was blocked with 5% BSA (Solarbio, A8020) in 1X TBST (CST, 9997S) for 1 hour at room temperature, specific antibodies (Ubiquityl-PCNA antibody (CST, 13439) at 1:500 dilution, PCNA antibody (Santa Cruz, sc-56) at 1:1000 dilution, and GAPDH (CST, 5174) at 1:2000 dilution in 1 X TBST containing 1% BSA) were added and incubated at room temperature for 1.5 hours. After washing the Nitrocellulose membranes with 1 X TBST for 3 times, 10 minutes each time at room temperature, fluorescently labeled secondary antibodies (anti-rabbit IgG, Licor, 926-32211; anti-mouse IgG, LI-COR, 926-68070) at 1:5000 dilution in 1 X TBST containing 1% BSA were added and incubated for 1 hour at room temperature in the dark. The membranes were then rinsed with 1 X TBST and immersed in the RO water. Imaging of band intensity was acquired with Li—COR imaging system (Li—COR, Odyssey clx ES).
Percentage of USP1 inhibition (% Vehicle) was calculated by using following equation examining Ub-PCNA upregulation:
And IC50 was calculated using four-parameter logistic fitting program • Y=Bottom+(Top-Bottom)/(1+10 {circumflex over (()}(LogIC50−X)*Hill Slope)) • X=Log of dose or concentration
(§1) Certain compounds were tested in the assays.

MDA-MB-436 cells = assay: CTG Protocol (MDA-MB-436 GI50), antiproliferative activity; format: cell-based, human; conditions: MDA-MB-436 cells (BRCA1 mutation), 7-day incubation, CellTiter-Glo
Procedure: CTG Protocol (MDA-MB-436 GI50)
Antiproliferative activity of USP1 inhibitors was determined using breast cancer cell line MDA-MB-436 that harbors BRCA1 mutation. MDA-MB-436 cells (ATCC, HTB-130) was seeded with a seeding density of 1000 cells per well and 95 μL DMEM medium (Gibco, 10566016) into 96-well cell plates (Corning, 3610), and incubated overnight at 37° C. and 5% CO2. Compounds were solubilized in DMSO (Solarbio, D8371) as 10 mM stock solution, and then series diluted (3 folds) with DMSO for 9-point dose-response testing. The resulted series dilutions were then jump-diluted 50-fold by cell culture medium to afford the 20×stock solutions (containing 2% DMSO). Treatment was initiated by adding 5 μL of 20×stock solution to the assay plate and incubated at 37° C. and 5% CO2. At the end of 7-day incubation, cell assay plates were removed from incubation and equilibrated to room temperature (20 min). Then 100 μL of CellTiter-Glo (Promega, G9243) reagent, prepared per manufacturer's protocol, was added to each well, and the resulted plates were centrifuged 1,000 rpm for 1 minute, incubated at room temperature in the dark for 20 minutes, sealed with Perkin Elmer sticky film, and the luminescence signal read by Envision (Perkin Elmer).
Data analysis • a) % Inhibition was calculated using following equation: […]
X: compound concentration; Y: % Inhibition
as §1

| Structure (SMILES) | IC50 (HCC1806 Ub-PCNA (USP1); Homo sapiens) | GI50 (MDA-MB-436 cells; Homo sapiens, 168 h) | IC50 (HCC1806 Ub-PCNA (USP1)) | GI50 (MDA-MB-436 cells) |
| --- | --- | --- | --- | --- |
| COc1ncnc(C2CC2)c1-c1ncc2ccc(=O)n(Cc3ccc(-c4nc(C(F)(F)F)ccc4OC(C)C)cc3)c2n1 [Compound 75, 2-(4-Cyclopropyl-6-Methoxypyrimidin-5-Yl)-8-({4-[3-Isopropoxy-6-(Trifluoromethyl)Pyridin-2-Yl]Phenyl}Methyl)Pyrido[2,3-d]Pyrimidin-7-One] | 10 to 100 nM | 10 to 100 nM |  |  |
| COc1ncnc(C2CC2)c1-c1ncc2cc(Cl)c(=O)n(Cc3ccc(-c4nc(C(F)(F)F)cn4C)cc3)c2n1 [Compound 79, 6-Chloro-2-(4-Cyclopropyl-6-Methoxypyrimidin-5-Yl)-8-({4-[1-Methyl-4-(Trifluoromethyl)Imidazol-2-Yl]Phenyl}Methyl)Pyrido[2,3-d]Pyrimidin-7-One] | 10 to 100 nM | 10 to 100 nM |  |  |
| CCc1ncnc(C2CC2)c1-c1ncc2ccc(=O)n(Cc3ccc(-c4nc(C(F)(F)F)cn4C)cc3)c2n1 [Compound 52, 2-(4-Cyclopropyl-6-Ethylpyrimidin-5-Yl)-8-({4-[1-Methyl-4-(Trifluoromethyl)Imidazol-2-Yl]Phenyl}Methyl)Pyrido[2,3-d]Pyrimidin-7-One] | 100 to 1000 nM | 100 to 1000 nM |  |  |
| COc1ncnc(C2CC2)c1-c1ncc2ccc(=O)n(C(C)c3ccc(-c4nc(C(F)(F)F)cn4C)cc3)c2n1 (centres unmarked) [Compound 63] |  |  | 10 to 100 nM | 10 to 100 nM |
| COc1ncnc(C2CC2)c1-c1ncc2ccc(=O)n(Cc3ccc(-c4nc(C(F)(F)F)cn4C)cn3)c2n1 [Compound 88, 2-(4-Cyclopropyl-6-Methoxypyrimidin-5-Yl)-8-({5-[1-Methyl-4-(Trifluoromethyl)Imidazol-2-Yl]Pyridin-2-Yl}Methyl)Pyrido[2,3-d]Pyrimidin-7-One] | 10 to 100 nM | > 1000 nM |  |  |
| COc1ncnc(C2CC2)c1-c1ncc2ccc(=O)n(Cc3ccc(-c4ncc(F)cc4OC(C)C)cc3)c2n1 [Compound 67, 2-(4-cyclopropyl-6-methoxypyrimidin-5-yl)-8-{[4-(5-fluoro-3-isopropoxypyridin-2-yl)phenyl]methyl}pyrido[2,3-d]pyrimidin-7-one] | 10 to 100 nM | 10 to 100 nM |  |  |
| COc1ncnc(C2CC2)c1-c1ncc2ccc(=O)n(Cc3ccc(-c4nc(C(F)(F)F)c[nH]4)cc3)c2n1 [Compound 58, 2-(4-Cyclopropyl-6-Methoxypyrimidin-5-Yl)-8-({4-[4-(Trifluoromethyl)-1H-Imidazol-2-Yl]Phenyl}Methyl)Pyrido[2,3-d]Pyrimidin-7-One] |  | 10 to 100 nM |  |  |
| COc1ncnc(C2CC2)c1-c1ncc2ccc(=O)n(Cc3ccc(-c4nc(C(F)(F)F)cn4C)cc3F)c2n1 [Compound 71, 2-(4-Cyclopropyl-6-Methoxypyrimidin-5-Yl)-8-({2-Fluoro-4-[1-Methyl-4-(Trifluoromethyl)Imidazol-2-Yl]Phenyl}Methyl)Pyrido[2,3-d]Pyrimidin-7-One] | 10 to 100 nM | 10 to 100 nM |  |  |

Now from value to compound:

| IC50 (HCC1806 Ub-PCNA (USP1); Homo sapiens) | GI50 (MDA-MB-436 cells; Homo sapiens, 168 h) | IC50 (HCC1806 Ub-PCNA (USP1)) | GI50 (MDA-MB-436 cells) | Structure (SMILES) |
| --- | --- | --- | --- | --- |
| < 10 nM | 10 to 100 nM |  |  | COc1ncnc(C2CC2)c1-c1ncc2cc(-c3cncc(F)c3)c(=O)n(Cc3ccc(-c4nc(C(F)(F)F)cn4C4CC4)cc3)c2n1 [Compound I-162] |
| < 10 nM | < 10 nM |  |  | COc1ncnc(C2CC2)c1-c1ncc2ncc(=O)n(Cc3ccc(-c4nc(C(F)(F)F)cn4C(C)C)cc3)c2n1 [Compound I-29] |
| 10 to 100 nM | 10 to 100 nM |  |  | COc1ncnc(C2CC2)c1-c1ncc2ccc(=O)n(C(C)c3ccc(-c4nc(C(F)(F)F)cn4C)cc3)c2n1 (centres unmarked) [Compound I-43, 2-(4-Cyclopropyl-6-Methoxypyrimidin-5-Yl)-8-(1-{4-[1-Methyl-4-(Trifluoromethyl)Imidazol-2-Yl]Phenyl}Ethyl)Pyrido[2,3-d]Pyrimidin-7-One] |
| 10 to 100 nM | 10 to 100 nM |  |  | COc1ncnc(C2CC2)c1-c1ncc2cc(-c3c(C)cnn3C)c(=O)n(Cc3ccc(-c4nc(C(F)(F)F)cn4C(C)C)cc3)c2n1 [Compound I-165, 2-(4-Cyclopropyl-6-Methoxypyrimidin-5-Yl)-6-(2,4-Dimethylpyrazol-3-Yl)-8-({4-[1-Isopropyl-4-(Trifluoromethyl)Imidazol-2-Yl]Phenyl}Methyl)Pyrido[2,3-d]Pyrimidin-7-One] |
| 10 to 100 nM | 10 to 100 nM |  |  | COc1ncnc(C2CC2)c1-c1ncc2cc(-c3nnc(C)o3)c(=O)n(Cc3ccc(-c4nc(C(F)(F)F)cn4C4CC4)cc3)c2n1 [Compound I-154] |
| < 10 nM | 10 to 100 nM |  |  | COc1ncnc(C2CC2)c1-c1ncc2cc(-c3cnnn3C)c(=O)n(Cc3ccc(-c4nc(C(F)(F)F)cn4C4CC4)cc3)c2n1 [Compound I-159, 8-({4-[1-cyclopropyl-4-(trifluoromethyl)imidazol-2-yl]phenyl}methyl)-2-(4-cyclopropyl-6-methoxypyrimidin-5-yl)-6-(3-methyl-1,2,3-triazol-4-yl)pyrido[2,3-d]pyrimidin-7-one] |
| 10 to 100 nM | 10 to 100 nM |  |  | COc1ncnc(C2CC2)c1-c1ncc2cc(-c3nnc(C)n3C)c(=O)n(Cc3ccc(-c4nc(C(F)(F)F)cn4C4CC4)cc3)c2n1 [Compound I-149, 8-({4-[1-Cyclopropyl-4-(Trifluoromethyl)Imidazol-2-Yl]Phenyl}Methyl)-2-(4-Cyclopropyl-6-Methoxypyrimidin-5-Yl)-6-(4,5-Dimethyl-1,2,4-Triazol-3-Yl)Pyrido[2,3-d]Pyrimidin-7-One] |
| < 10 nM | 10 to 100 nM |  |  | COc1ncnc(C2CC2)c1-c1ncc2cc(-c3cn(C)cn3)c(=O)n(Cc3ccc(-c4nc(C(F)(F)F)cn4C4CC4)cc3)c2n1 [Compound I-161, 8-({4-[1-cyclopropyl-4-(trifluoromethyl)imidazo]-2-yl]phenylmethyl)-2-(4-cyclopropyl-6-methoxypyrimidin-5-yl)-6-(1-methylimidazol-4-yl)pyrido[2,3-d]pyrimidin-7-one] |
| 10 to 100 nM | 10 to 100 nM |  |  | COc1nn(C)cc1-c1cc2cnc(-c3c(OC)ncnc3C3CC3)nc2n(Cc2ccc(-c3nc(C(F)(F)F)cn3C3CC3)cc2)c1=O [Compound I-164] |
| 10 to 100 nM | 10 to 100 nM |  |  | Cc1cnn(C(C)C)c1-c1ncc2ccc(=O)n(Cc3ccc(-c4nc(C(F)(F)F)cn4C)cc3)c2n1 [Compound I-45, 2-(2-isopropyl-4-methylpyrazol-3-yl)-8-({4-[1-methyl-4-(trifluoromethyl)imidazol-2-yl]phenyl}methyl)pyrido[2,3-d]pyrimidin-7-one] |
